# Reference: patent US10131652B2, “Pyrimidinyloxy benzene derivatives as herbicides” (E. I. DU PONT DE NEMOURS AND COMPANY, priority 2014, dated 2018)
# Read-outs that look alike come from different tables or passages of the source.
# Experiments:
# Assay in all cases: Test E pre-/postemergence plant response
# Type in all cases: in vivo
# [1] = system: windgrass (Apera spica-venti); conditions: scale 0 to 100, read-out: Plant response rating, Windgrass; for pest or weed control at 16 g/ha: 16 g ai/ha; for pest or weed control at 62 g/ha: 62 g ai/ha; for pest or weed control at 125 g/ha: 125 g ai/ha
# Procedure, shortened: (§1)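 Visual scores on a 0–100 scale (100 = complete control) were assigned against untreated controls 7–21 days after treatment in a controlled environment. Compounds, formulated with solvent plus surfactant, were applied to pre-emergence silt-loam sowings or to 1- to 4-leaf plants (2–18 cm) in potting medium.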
# [2] = system: winter wheat (Triticum aestivum); conditions: post-emergence, Postemergence, scale 0 to 100, read-out: Plant response rating, Wheat, Winter
# Procedure, shortened: as §1
# [3] = system: field poppy (Papaver rhoeas); conditions: scale 0 to 100, read-out: Plant response rating, Field Poppy; for pest or weed control at 16 g/ha: 16 g ai/ha; for pest or weed control at 31 g/ha: 31 g ai/ha; for pest or weed control at 62 g/ha: 62 g ai/ha; for pest or weed control at 125 g/ha: 125 g ai/ha
# Procedure, shortened: as §1
# kochia (Kochia scoparia) = conditions: Bassia scoparia, scale 0 to 100, read-out: Plant response rating, Kochia; for pest or weed control at 16 g/ha: 16 g ai/ha; for pest or weed control at 31 g/ha: 31 g ai/ha; for pest or weed control at 62 g/ha: 62 g ai/ha; for pest or weed control at 125 g/ha: 125 g ai/ha
# Procedure, shortened: as §1
# [4] = system: Italian ryegrass (Lolium multiflorum); conditions: scale 0 to 100, read-out: Plant response rating, Ryegrass, Italian; for pest or weed control at 16 g/ha: 16 g ai/ha; for pest or weed control at 31 g/ha: 31 g ai/ha; for pest or weed control at 62 g/ha: 62 g ai/ha; for pest or weed control at 125 g/ha: 125 g ai/ha
# Procedure, shortened: as §1
# [5] = system: canarygrass (Phalaris minor); conditions: scale 0 to 100, read-out: Plant response rating, Canarygrass; for pest or weed control at 16 g/ha: 16 g ai/ha; for pest or weed control at 31 g/ha: 31 g ai/ha; for pest or weed control at 62 g/ha: 62 g ai/ha; for pest or weed control at 125 g/ha: 125 g ai/ha
# Procedure, shortened: as §1
# [6] = system: spring wheat (Triticum aestivum); conditions: post-emergence, Postemergence, scale 0 to 100, read-out: Plant response rating, Wheat, Spring
# Procedure, shortened: as §1
# [7] = system: chickweed (common chickweed, Stellaria media); conditions: scale 0 to 100, read-out: Plant response rating, Chickweed; for pest or weed control at 16 g/ha: 16 g ai/ha; for pest or weed control at 31 g/ha: 31 g ai/ha; for pest or weed control at 62 g/ha: 62 g ai/ha; for pest or weed control at 125 g/ha: 125 g ai/ha
# Procedure, shortened: as §1
# [8] = system: spring barley (Hordeum vulgare); conditions: post-emergence, Postemergence
# Procedure, shortened: as §1
# [9] = system: pigweed (Amaranthus retroflexus); conditions: scale 0 to 100, read-out: Plant response rating, Pigweed; for pest or weed control at 16 g/ha: 16 g ai/ha; for pest or weed control at 31 g/ha: 31 g ai/ha; for pest or weed control at 62 g/ha: 62 g ai/ha; for pest or weed control at 125 g/ha: 125 g ai/ha
# Procedure, shortened: as §1
# [10] = system: wild radish (Raphanus raphanistrum); conditions: scale 0 to 100, read-out: Plant response rating, Radish, Wild; for pest or weed control at 16 g/ha: 16 g ai/ha; for pest or weed control at 31 g/ha: 31 g ai/ha; for pest or weed control at 62 g/ha: 62 g ai/ha; for pest or weed control at 125 g/ha: 125 g ai/ha
# Procedure, shortened: as §1
smiles,measurement,setting,value
"FC(F)(F)c1cc(-c2ccccc2Oc2ncc(Cl)cn2)no1 [Compound 200, 5-chloro-2-[2-[5-(trifluoromethyl)-3-isoxazolyl]phenoxy]pyrimidine]",pest or weed control at 16 g/ha,"[1]; post-emergence, Postemergence",10%
same,pest or weed control at 31 g/ha,"[1]; post-emergence, 31 g ai/ha, Postemergence",20%
same,pest or weed control at 62 g/ha,"[1]; post-emergence, Postemergence",35%
same,pest or weed control at 125 g/ha,"[1]; post-emergence, Postemergence",45%
same,pest or weed control at 16 g/ha,"[1]; pre-emergence, Preemergence",15%
same,pest or weed control at 62 g/ha,"[1]; pre-emergence, Preemergence",100%
same,pest or weed control at 125 g/ha,"[1]; pre-emergence, Preemergence",100%
same,plant injury at 16 g/ha,[2]; 16 g ai/ha,0%
same,plant injury at 31 g/ha,[2]; 31 g ai/ha,5%
same,plant injury at 62 g/ha,[2]; 62 g ai/ha,15%
same,plant injury at 125 g/ha,[2]; 125 g ai/ha,25%
same,pest or weed control at 16 g/ha,"[3]; post-emergence, Postemergence",75%
same,pest or weed control at 31 g/ha,"[3]; post-emergence, Postemergence",80%
same,pest or weed control at 62 g/ha,"[3]; post-emergence, Postemergence",100%
same,pest or weed control at 125 g/ha,"[3]; post-emergence, Postemergence",100%
same,pest or weed control at 16 g/ha,"[3]; pre-emergence, Preemergence",80%
same,pest or weed control at 31 g/ha,"[3]; pre-emergence, Preemergence",90%
same,pest or weed control at 62 g/ha,"[3]; pre-emergence, Preemergence",95%
same,pest or weed control at 125 g/ha,"[3]; pre-emergence, Preemergence",95%
same,pest or weed control at 16 g/ha,"kochia (Kochia scoparia); post-emergence, Postemergence",70%
same,pest or weed control at 31 g/ha,"kochia (Kochia scoparia); post-emergence, Postemergence",85%
same,pest or weed control at 62 g/ha,"kochia (Kochia scoparia); post-emergence, Postemergence",85%
same,pest or weed control at 125 g/ha,"kochia (Kochia scoparia); post-emergence, Postemergence",90%
same,pest or weed control at 16 g/ha,"kochia (Kochia scoparia); pre-emergence, Preemergence",70%
same,pest or weed control at 31 g/ha,"kochia (Kochia scoparia); pre-emergence, Preemergence",100%
same,pest or weed control at 62 g/ha,"kochia (Kochia scoparia); pre-emergence, Preemergence",100%
same,pest or weed control at 125 g/ha,"kochia (Kochia scoparia); pre-emergence, Preemergence",100%
same,pest or weed control at 16 g/ha,"[4]; post-emergence, Postemergence",5%
same,pest or weed control at 31 g/ha,"[4]; post-emergence, Postemergence",10%
same,pest or weed control at 62 g/ha,"[4]; post-emergence, Postemergence",25%
same,pest or weed control at 125 g/ha,"[4]; post-emergence, Postemergence",40%
same,pest or weed control at 16 g/ha,"[4]; pre-emergence, Preemergence",0%
same,pest or weed control at 31 g/ha,"[4]; pre-emergence, Preemergence",25%
same,pest or weed control at 62 g/ha,"[4]; pre-emergence, Preemergence",30%
same,pest or weed control at 125 g/ha,"[4]; pre-emergence, Preemergence",85%
same,pest or weed control at 16 g/ha,"[5]; post-emergence, Postemergence",10%
same,pest or weed control at 31 g/ha,"[5]; post-emergence, Postemergence",35%
same,pest or weed control at 62 g/ha,"[5]; post-emergence, Postemergence",45%
same,pest or weed control at 125 g/ha,"[5]; post-emergence, Postemergence",60%
same,pest or weed control at 16 g/ha,"[5]; pre-emergence, Preemergence",10%
same,pest or weed control at 31 g/ha,"[5]; pre-emergence, Preemergence",55%
same,pest or weed control at 62 g/ha,"[5]; pre-emergence, Preemergence",100%
same,pest or weed control at 125 g/ha,"[5]; pre-emergence, Preemergence",100%
same,plant injury at 16 g/ha,[6]; 16 g ai/ha,5%
same,plant injury at 31 g/ha,[6]; 31 g ai/ha,10%
same,plant injury at 62 g/ha,[6]; 62 g ai/ha,20%
same,plant injury at 125 g/ha,[6]; 125 g ai/ha,35%
same,pest or weed control at 16 g/ha,"[7]; post-emergence, Postemergence",65%
same,pest or weed control at 31 g/ha,"[7]; post-emergence, Postemergence",75%
same,pest or weed control at 62 g/ha,"[7]; post-emergence, Postemergence",100%
same,pest or weed control at 125 g/ha,"[7]; post-emergence, Postemergence",100%
same,pest or weed control at 16 g/ha,"[7]; pre-emergence, Preemergence",70%
same,pest or weed control at 31 g/ha,"[7]; pre-emergence, Preemergence",90%
same,pest or weed control at 62 g/ha,"[7]; pre-emergence, Preemergence",100%
same,pest or weed control at 125 g/ha,"[7]; pre-emergence, Preemergence",100%
same,plant injury at 16 g/ha,"[8]; 16 g ai/ha, scale 0 to 100, read-out: Plant response rating, Barley, Spring",10%
same,plant injury at 31 g/ha,"[8]; 31 g ai/ha, scale 0 to 100, read-out: Plant response rating, Barley, Spring",15%
same,plant injury at 62 g/ha,"[8]; 62 g ai/ha, scale 0 to 100, read-out: Plant response rating, Barley, Spring",25%
same,plant injury at 125 g/ha,"[8]; 125 g ai/ha, scale 0 to 100 (0 no effect, 100 complete control), read-out: Plant response rating, Barley, Spring",35%
same,pest or weed control at 16 g/ha,"[9]; post-emergence, Postemergence",85%
same,pest or weed control at 31 g/ha,"[9]; post-emergence, Postemergence",90%
same,pest or weed control at 62 g/ha,"[9]; post-emergence, Postemergence",90%
same,pest or weed control at 125 g/ha,"[9]; post-emergence, Postemergence",90%
same,pest or weed control at 16 g/ha,"[9]; pre-emergence, Preemergence",100%
same,pest or weed control at 31 g/ha,"[9]; pre-emergence, Preemergence",100%
same,pest or weed control at 62 g/ha,"[9]; pre-emergence, Preemergence",100%
same,pest or weed control at 125 g/ha,"[9]; pre-emergence, Preemergence",100%
same,pest or weed control at 16 g/ha,"[10]; post-emergence, Postemergence",65%
same,pest or weed control at 31 g/ha,"[10]; post-emergence, Postemergence",80%
same,pest or weed control at 62 g/ha,"[10]; post-emergence, Postemergence",85%
same,pest or weed control at 125 g/ha,"[10]; post-emergence, Postemergence",95%
same,pest or weed control at 16 g/ha,"[10]; pre-emergence, Preemergence",80%
same,pest or weed control at 31 g/ha,"[10]; pre-emergence, Preemergence",70%
same,pest or weed control at 62 g/ha,"[10]; pre-emergence, Preemergence",95%
same,pest or weed control at 125 g/ha,"[10]; pre-emergence, Preemergence",95%
